Reference: US5106859A, “Certain 1,3,4-thiadiazole derivatives and anti-ulcer agent comprising said derivatives as active ingredient” (Tsumura & Co., priority 1988, dated 1992)

System: mucosa of the stomach
Assay: Anti-ulcer test by oral administration (hydrochloric acid/ethanol-induced stomach mucosa damage)
Assay type: in vivo, male rats of the Wistar strain
Conditions: 3 mg/kg orally in 0.5% CMC, 30 minutes before 150 M hydrochloric acid/60% ethanol; male Wistar rats, 8 per group; 1 hour after hydrochloric acid/ethanol
Protocol: To male rats of the Wistar strain (each group consisting of 8 rats) having a body weight of 160 to 180 g, which had been fasted for 24 hours, was orally administered 3 mg/kg of the compound of formula I in the form of a suspension in a 0.5% solution of carboxymethyl cellulose (CMC), and after 30 minutes, 1 ml/200 of […] hydrochloric acid/60% ethanol was orally administered to the rats. One hour after the administration of the hydrochloric acid/ethanol, the rats were subjected to laparotomy, and the length of the damaged part formed on the mucosa of the stomach was compared, as the mucosa damage coefficient, with that in the control group. Only the 0.5% solution of CMC not containing the compound of formula I was orally administered to the control group. The inhibition ratio was calculated according to the following formula: [formula] wherein A represents the value of the control group and B represents the value of the group to which the compound of formula I was administered.

| Compound | Inhibition Ratio (mucosa damage coefficient) |
| --- | --- |
| CCOC(=O)c1ccc(CSc2nnc(-c3cccnc3)s2)nc1 [Example 1, 2-[(5-Ethoxycarbonylpyridin-2-yl)methylthio]-5-(3-pyridyl)-1,3,4-thiadiazole] | 42.9% |
| CCOC(=O)c1ccc(C[S+]([O-])c2nnc(-c3cccnc3)s2)nc1 (centres unmarked) [Example 2, 2-[(5-Ethoxycarbonylpyridin-2-yl)methylsulfinyl]-5-(3-pyridyl)-1,3,4-thiadiazole] | 91.5% |
